Assay results: PubChem BioAssay (NCI)
Several values for one entry are separate records, joined by “and”; a condition that tells them apart may be missing. Identical values can stand only once.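 96-well plates; 48 h exposure; 5 concentrations. Endpoints by linear interpolation between flanking doses. Not reached: highest tested concentration assigned. The concentration for 50% growth inhibition is given as GI50. At the TGI there is no net growth.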

Columns and labels:
Assay in all cases: NCI tumour cell line growth inhibition, 48 h
786-0 renal = test system: 786-0 renal
A498 renal = test system: A498 renal
A549 NSCLC = test system: A549 NSCLC
ACHN renal = test system: ACHN renal
BT-549 breast = test system: BT-549 breast
CAKI-1 renal = test system: CAKI-1 renal
CCRF-CEM leukemia = test system: CCRF-CEM leukemia
COLO 205 colon = test system: COLO 205 colon
DLD-1 colon = test system: DLD-1 colon
DMS 114 small cell lung = test system: DMS 114 small cell lung
DMS 273 small cell lung = test system: DMS 273 small cell lung
DU-145 prostate = test system: DU-145 prostate
EKVX NSCLC = test system: EKVX NSCLC
HCC-2998 colon = test system: HCC-2998 colon
HCT-116 colon = test system: HCT-116 colon
HCT-15 colon = test system: HCT-15 colon
HL-60(TB) leukemia = test system: HL-60(TB) leukemia
HOP-18 NSCLC = test system: HOP-18 NSCLC
HOP-62 NSCLC = test system: HOP-62 NSCLC
HOP-92 NSCLC = test system: HOP-92 NSCLC
HS 578T breast = test system: HS 578T breast
HT29 colon = test system: HT29 colon
IGROV1 ovarian = test system: IGROV1 ovarian
K-562 leukemia = test system: K-562 leukemia
KM12 colon = test system: KM12 colon
KM20L2 colon = test system: KM20L2 colon
LOX IMVI melanoma = test system: LOX IMVI melanoma
LXFL 529 NSCLC = test system: LXFL 529 NSCLC
M14 melanoma = test system: M14 melanoma
M19-MEL melanoma = test system: M19-MEL melanoma
MALME-3M melanoma = test system: MALME-3M melanoma
MCF7 breast = test system: MCF7 breast
MDA-MB-435 = test system: MDA-MB-435
MDA-N = test system: MDA-N
MOLT-4 leukemia = test system: MOLT-4 leukemia
NCI-H226 lung = test system: NCI-H226 lung
NCI-H23 lung = test system: NCI-H23 lung
NCI-H460 lung = test system: NCI-H460 lung
NCI-H522 lung = test system: NCI-H522 lung
OVCAR-3 ovarian = test system: OVCAR-3 ovarian
OVCAR-4 ovarian = test system: OVCAR-4 ovarian
OVCAR-5 ovarian = test system: OVCAR-5 ovarian
OVCAR-8 ovarian = test system: OVCAR-8 ovarian
PC-3 prostate = test system: PC-3 prostate
RPMI-8226 leukemia = test system: RPMI-8226 leukemia
RXF 393 renal = test system: RXF 393 renal
RXF-631 renal = test system: RXF-631 renal
SF-268 CNS = test system: SF-268 CNS
SF-295 CNS = test system: SF-295 CNS
SF-539 CNS = test system: SF-539 CNS
SK-MEL-2 melanoma = test system: SK-MEL-2 melanoma
SK-MEL-28 melanoma = test system: SK-MEL-28 melanoma
SK-MEL-5 melanoma = test system: SK-MEL-5 melanoma
SK-OV-3 ovarian = test system: SK-OV-3 ovarian
SN12C renal = test system: SN12C renal
SNB-19 CNS = test system: SNB-19 CNS
SNB-75 CNS = test system: SNB-75 CNS
SNB-78 CNS = test system: SNB-78 CNS
SW-620 colon = test system: SW-620 colon
T-47D breast = test system: T-47D breast
TK-10 renal = test system: TK-10 renal
U251 CNS = test system: U251 CNS
UACC-257 melanoma = test system: UACC-257 melanoma
UACC-62 melanoma = test system: UACC-62 melanoma
UO-31 renal = test system: UO-31 renal
XF 498 CNS = test system: XF 498 CNS
MDA-MB-231 breast = test system: MDA-MB-231 breast
NCI/ADR-RES ovarian = test system: NCI/ADR-RES ovarian
P388 leukemia = test system: P388 leukemia
P388/ADR leukemia = test system: P388/ADR leukemia
SN12K1 renal = test system: SN12K1 renal
SR leukemia = test system: SR leukemia

For `O=c1c(NO)c([N+](=O)[O-])cnn1-c1ccccc1`, the TGI (786-0 renal) was 12.7 µM, the TGI (A498 renal) was 50 µM and the TGI (A549 NSCLC) was 36.2 µM. The TGI (ACHN renal) was 15.9 µM, the TGI (BT-549 breast) was 2.93 µM and the TGI (CAKI-1 renal) was 11.2 µM. For the same compound, the TGI (CCRF-CEM leukemia) was 2.8 µM, the TGI (COLO 205 colon) was 9.85 µM and the TGI (DLD-1 colon) was 10.2 µM. For the same compound, the TGI (DMS 114 small cell lung) was 35.3 µM, the TGI (DMS 273 small cell lung) was 13.4 µM and the TGI (DU-145 prostate) was 27.6 µM. For the same compound, the TGI (EKVX NSCLC) was 29.8 µM, the TGI (HCC-2998 colon) was 9.86 µM and the TGI (HCT-116 colon) was 6.25 µM. The TGI (HCT-15 colon) was 11.6 µM, the TGI (HL-60(TB) leukemia) was 3.14 µM and the TGI (HOP-18 NSCLC) was 37.5 µM. The TGI (HOP-62 NSCLC) was 23.1 µM, the TGI (HOP-92 NSCLC) was 13.9 µM and the TGI (HS 578T breast) was 11 µM. It also gave a TGI (HT29 colon) of 6.14 µM, a TGI (IGROV1 ovarian) of 41.1 µM and a TGI (K-562 leukemia) of 1.86 µM. For the same compound, the TGI (KM12 colon) was 23.5 µM, the TGI (KM20L2 colon) was 18.3 µM and the TGI (LOX IMVI melanoma) was 3.66 µM. The TGI (LXFL 529 NSCLC) was 3.17 µM, the TGI (M14 melanoma) was 4.09 µM and the TGI (M19-MEL melanoma) was 12.2 µM. For the same compound, the TGI (MALME-3M melanoma) was 12 µM, the TGI (MCF7 breast) was 16.5 µM and the TGI (MDA-MB-435) was 3.34 µM. For the same compound, the TGI (MDA-N) was 4.02 µM, the TGI (MOLT-4 leukemia) was 10.5 µM and the TGI (NCI-H226 lung) was 16.5 µM. It also gave a TGI (NCI-H23 lung) of 13.2 µM, a TGI (NCI-H460 lung) of 13.1 µM and a TGI (NCI-H522 lung) of 4.86 µM. It also gave a TGI (OVCAR-3 ovarian) of 5.76 µM, a TGI (OVCAR-4 ovarian) of 6.95 µM and a TGI (OVCAR-5 ovarian) of 14 µM. For the same compound, the TGI (OVCAR-8 ovarian) was 7.48 µM, the TGI (PC-3 prostate) was 2.97 µM and the TGI (RPMI-8226 leukemia) was 34 µM. For the same compound, the TGI (RXF 393 renal) was 12.3 µM, the TGI (RXF-631 renal) was 6.18 µM and the TGI (SF-268 CNS) was 34.2 µM. The TGI (SF-295 CNS) was 27 µM, the TGI (SF-539 CNS) was 28.9 µM and the TGI (SK-MEL-2 melanoma) was 31.4 µM. It also gave a TGI (SK-MEL-28 melanoma) of 8.87 µM, a TGI (SK-MEL-5 melanoma) of 12.4 µM and a TGI (SK-OV-3 ovarian) of 13.3 µM. The TGI (SN12C renal) was 7.59 µM, the TGI (SNB-19 CNS) was 26.1 µM and the TGI (SNB-75 CNS) was 28.4 µM. It also gave a TGI (SNB-78 CNS) of 39.2 µM, a TGI (SW-620 colon) of 3.73 µM and a TGI (T-47D breast) of 3.79 µM. For the same compound, the TGI (TK-10 renal) was 33.2 µM, the TGI (U251 CNS) was 8.07 µM and the TGI (UACC-257 melanoma) was 13.4 µM. For the same compound, the TGI (UACC-62 melanoma) was 10.8 µM, the TGI (UO-31 renal) was 12.9 µM and the TGI (XF 498 CNS) was 8.38 µM.
Work on `O=S1(=O)CS(=O)(=O)OCCO1` yielded a GI50 (786-0 renal) of 35.6 µM, a TGI (786-0 renal) of 159 µM and a TGI (A498 renal) of 154 µM. The GI50 (A549 NSCLC) was greater than 82.6 µM, the TGI (A549 NSCLC) was 186 µM and the GI50 (ACHN renal) was 36.3 µM. For the same compound, the TGI (ACHN renal) was 56.5 µM, the GI50 (BT-549 breast) was 69.2 µM and the TGI (BT-549 breast) was 156 µM. For the same compound, the GI50 (CAKI-1 renal) was 33.2 µM, the TGI (CAKI-1 renal) was > 92.9 µM and 143 µM and the TGI (CCRF-CEM leukemia) was 252 µM. For the same compound, the TGI (COLO 205 colon) was 157 µM, the TGI (DLD-1 colon) was 164 µM and the TGI (DMS 114 small cell lung) was 108 µM. It also gave a TGI (DMS 273 small cell lung) of 215 µM, a TGI (DU-145 prostate) of 178 µM and a TGI (EKVX NSCLC) of 273 µM. For the same compound, the GI50 (HCC-2998 colon) was 68.1 µM, the TGI (HCC-2998 colon) was 106 µM and the GI50 (HCT-116 colon) was greater than 74.6 µM. It also gave a TGI (HCT-116 colon) of 85.3 µM, a GI50 (HCT-15 colon) greater than 85.6 µM and a TGI (HCT-15 colon) of 128 µM. The GI50 (HL-60(TB) leukemia) was 23.9 µM, the TGI (HL-60(TB) leukemia) was 93.1 µM and 61.8 µM and the TGI (HOP-18 NSCLC) was 436 µM. The GI50 (HOP-62 NSCLC) was greater than 85.2 µM, the TGI (HOP-62 NSCLC) was 50.9 µM and the GI50 (HOP-92 NSCLC) was greater than 49.7 µM. For the same compound, the TGI (HOP-92 NSCLC) was 112 µM, the TGI (HS 578T breast) was 176 µM and the TGI (HT29 colon) was 347 µM. It also gave a GI50 (IGROV1 ovarian) greater than 69.7 µM, a TGI (IGROV1 ovarian) of 144 µM and a TGI (K-562 leukemia) of 423 µM. For the same compound, the TGI (KM12 colon) was 121 µM, the TGI (KM20L2 colon) was 331 µM and the GI50 (LOX IMVI melanoma) was 29.7 µM. For the same compound, the TGI (LOX IMVI melanoma) was 71.3 µM, the GI50 (M14 melanoma) was greater than 78.5 µM and the TGI (M14 melanoma) was 162 µM. For the same compound, the TGI (M19-MEL melanoma) was 126 µM, the TGI (MALME-3M melanoma) was 214 µM and the GI50 (MCF7 breast) was 39.1 µM. For the same compound, the TGI (MCF7 breast) was 348 µM, the TGI (MDA-MB-231 breast) was 352 µM and the GI50 (MDA-MB-435) was 72.9 µM. For the same compound, the TGI (MDA-MB-435) was 94.4 µM, the TGI (MDA-N) was 80.3 µM and the GI50 (MOLT-4 leukemia) was 18.4 µM. The TGI (MOLT-4 leukemia) was 100 µM, the GI50 (NCI-H226 lung) was greater than 93.7 µM and the TGI (NCI-H226 lung) was 172 µM. The TGI (NCI-H23 lung) was > 81.5 µM and 113 µM, the GI50 (NCI-H460 lung) was 18.1 µM and the TGI (NCI-H460 lung) was 69.9 µM. For the same compound, the GI50 (NCI-H522 lung) was greater than 96.4 µM, the TGI (NCI-H522 lung) was 140 µM and the GI50 (NCI/ADR-RES ovarian) was 25.7 µM. For the same compound, the TGI (NCI/ADR-RES ovarian) was 89.6 µM and 270 µM, the TGI (OVCAR-3 ovarian) was 87.5 µM and the TGI (OVCAR-4 ovarian) was 130 µM. The TGI (OVCAR-5 ovarian) was 269 µM, the GI50 (OVCAR-8 ovarian) was greater than 77.7 µM and the TGI (OVCAR-8 ovarian) was 235 µM. For the same compound, the TGI (P388 leukemia) was 119 µM, the TGI (P388/ADR leukemia) was 91.8 µM and the TGI (PC-3 prostate) was 665 µM. For the same compound, the TGI (RPMI-8226 leukemia) was 599 µM, the GI50 (RXF 393 renal) was greater than 94.8 µM and the TGI (RXF 393 renal) was 118 µM. The GI50 (SF-268 CNS) was 85.6 µM, the TGI (SF-268 CNS) was 249 µM and the GI50 (SF-295 CNS) was 43.1 µM. For the same compound, the TGI (SF-295 CNS) was 121 µM, the GI50 (SF-539 CNS) was 30.4 µM and the TGI (SF-539 CNS) was > 78.2 µM and 63.5 µM. The TGI (SK-MEL-2 melanoma) was 119 µM, the GI50 (SK-MEL-28 melanoma) was greater than 93.9 µM and the TGI (SK-MEL-28 melanoma) was 300 µM. The GI50 (SK-MEL-5 melanoma) was greater than 56.6 µM, the TGI (SK-MEL-5 melanoma) was 87.7 µM and the TGI (SK-OV-3 ovarian) was 70.5 µM. It also gave a TGI (SN12C renal) of 335 µM, a TGI (SN12K1 renal) of 92.4 µM and a TGI (SNB-19 CNS) of 324 µM. The GI50 (SNB-75 CNS) was 56.9 µM, the TGI (SNB-75 CNS) was 57.2 µM and the TGI (SNB-78 CNS) was 140 µM. The GI50 (SR leukemia) was 1.15 µM, the TGI (SW-620 colon) was 321 µM and the GI50 (T-47D breast) was 87.6 µM. The TGI (T-47D breast) was 557 µM, the TGI (TK-10 renal) was 363 µM and the GI50 (U251 CNS) was 18.2 µM. The TGI (U251 CNS) was 96.3 µM, the GI50 (UACC-257 melanoma) was greater than 63.8 µM and the TGI (UACC-257 melanoma) was 153 µM. The GI50 (UACC-62 melanoma) was 12 µM, the TGI (UACC-62 melanoma) was > 78.7 µM and 20.9 µM and the TGI (UO-31 renal) was 134 µM. The TGI (XF 498 CNS) was 47.1 µM.
